These are literature values, as cited in patent US20110184379A1, “METHOD AND SYSTEM TO DEFINE PATIENT SPECIFIC THERAPEUTIC REGIMENS BY MEANS OF PHARMACOKINETIC AND PHARMACODYNAMIC TOOLS” (MEDTRONIC, INC., priority 2008, published 2011).

Where two headings read alike, the source gives them in different places. Some results are limits rather than exact numbers.

For data set [1], the system named is HCV.
For data set [2] the following is noted: preliminary review of blinded data, four completed cohorts.
In a further data set the test system is HCV genotype-1. The conditions noted are these: 14-day course.
Data set [3] deals with chronic hepatitis C virus (HCV) genotype 1. The conditions noted are these: for SVR at 24 weeks after the end of treatment (SVR 24): 28-week Boceprevir arm.
For data set [4], the system named is HCV. As to conditions: for viral load reduction: oral.
In data set [5] the test system is HCV. This is another data set of the same source.
Data set [6] deals with genotype 1 HCV polymerases.
Data set [7] relates to Hepatitis C virus replicon.
A further data set has as its system HCV genotype 1. The conditions noted are these: 5 days of dosing.
Data set [8] concerns HCV. The source holds these as a separate data set.
The subject of data set [9] is HCV. The source holds these as a separate data set.

`CC(C)C(=O)OC[C@H]1O[C@@H](n2ccc(N)nc2=O)[C@](C)(F)[C@@H]1OC(=O)C(C)C` [R71278]: in the data set with HCV [1] (1,500 mg twice-daily arm), the “decrease in HCV RNA (viral load)” value is greater than 99%. Moreover, in the data set with HCV [1] (in vivo), the “antiviral activity across all dosing arms” value was “dose-dependent antiviral activity”; the safety and tolerability entry was “generally safe and well-tolerated with no serious adverse events”.
In the case of `CC(C)(C)OC(=O)N[C@H]1CCCCC/C=C\[C@@H]2C[C@@]2(C(=O)NS(=O)(=O)C2CC2)NC(=O)[C@@H]2C[C@@H](OC(=O)N3Cc4cccc(F)c4C3)CN2C1=O` [ITMN-191], the safety and tolerability result (preliminary safety data, doses intended for Phase 1b) was “well tolerated and safe”; the safety and tolerability result in [2] is “safe and well-tolerated”. Moreover, where the note is “single ascending dose, healthy subjects”, the serious adverse events entry is on record as “no serious adverse events were reported”.
Consider `CC(C)(C)NC(=O)N[C@H](C(=O)N1C[C@H]2[C@@H]([C@H]1C(=O)NC(CC1CCC1)C(=O)C(N)=O)C2(C)C)C(C)(C)C` (some centres unmarked) [SCH503034], for which the “maximum HCV RNA reduction” value in the data set on HCV genotype-1 (400 mg group) was “more than 2 logs”. Moreover, in the data set with HCV genotype-1, the safety and tolerability result is “safe and well-tolerated with no serious adverse events”. The results for the “SVR at 24 weeks after the end of treatment (SVR 24)” value in [3] (lead-in) and in [3] (no lead-in) were 56% and 55%, respectively. The “SVR rate at 12 weeks after the end of treatment (SVR 12)” value in data set [3] (48-week regimen, 4 weeks PEGINTRON + REBETOL lead-in before Boceprevir 800 mg TID, ITT) was 74%. Also, the “SVR 12” value in [3] (48 weeks Boceprevir + PEGIntron + REBETOL from the beginning, no P/R lead-in) is 66%. Further, the “SVR (ITT) in patients with rapid virologic response (RVR)” value in data set [3] (lead-in, 28-week regimen) is recorded as 82%; in [3] (lead-in, 48 week regimen), 92%.
`[N-]=[N+]=N[C@]1(CO)O[C@@H](n2ccc(N)nc2=O)[C@H](O)[C@@H]1O` [R1626, 4′-azidocytidine]: the viral load reduction in the data set on HCV [4] (100 mg dose (so in the source)) is given as 1.2 log 10; in the data set with HCV [4] (300 mg dose (so in the source)), 2.6 log 10; with HCV [4] (4500 mg dose) it was 3.7 log 10. In addition, the viral resistance result with HCV [4] (human, in vivo) is “No viral resistance was found”. In addition, the tolerability entry in the data set on HCV [4] (increasing adverse events at the highest dose (4500 mg)) is listed as “generally well-tolerated”. In the data set with HCV [5] (4 weeks R1626 + Peginterferon Alfa-2a (40 kd) + Ribavirin, then 44 weeks Peginterferon Alfa-2a + Ribavirin), the “End-of-Treatment Response” value is on record as 84%. The barrier to resistance entry in the data set on HCV [5] (in vivo) is “high barrier to resistance”.
For the molecule `COC[C@H]1C[C@@](Cn2cccn2)(C(=O)O)N(C(=O)c2ccc(C(C)(C)C)c(OC)c2)[C@H]1c1nccs1` [GSK625433], in data set [6], the “inhibition of genotype 1 HCV polymerases” value was “highly potent and selective inhibitor”; the “interaction with interferon in vitro” value is “synergistic”.
Turning to `COc1ccc2c(O[C@@H]3C[C@H]4C(=O)N[C@]5(C(=O)NS(=O)(=O)C6CC6)C[C@H]5/C=C\CCCCN(C)C(=O)[C@@H]4C3)cc(-c3nc(C(C)C)cs3)nc2c1C` [TMC435350], the appearance of drug-resistance entry in [7] (combination with interferon) is listed as “suppress the appearance of drug-resistance”. Further, the RNA reduction in data set [7] (combination with interferon, replicon model) is reported as greater than 4 logs. Further, the “effect on Hepatitis C virus replication” value in data set [7] (replicon experiments, via protease inhibition) is reported as “reduce the amount of Hepatitis C virus replication”. In the data set with HCV genotype 1, the tolerability entry is given as “well tolerated”. Besides, the antiviral activity entry in the data set on HCV genotype 1 (genotype 1 infected individuals) was “strong and rapid antiviral activity”.
As for interferon-α, the “therapeutic effectiveness of the combination” value with HCV [8] (ribavirin combined with interferon-α, genotype 1 population) is given as 29%. In addition, the “delay before HCV RNA decline” value with HCV [9] (IFN or IFN plus ribavirin) was 7 to 10 h. In addition, the “fall of HCV RNA in the first phase (1-2 days), on average” value with HCV [9] (genotype 1 infected patients) is on record as 1-2 logs.
With `NC(=O)c1ncn([C@@H]2O[C@H](CO)[C@@H](O)[C@H]2O)n1` [ribavirin, 1-β-D-ribofuranosyl-1H-1,2,4-triazole-3-carboxamide], in the data set on HCV [8] (monotherapy), the efficacy entry was “negligible efficacy”.
